Source: ChEMBL document CHEMBL2086360, “α-Glucosidase inhibitory hydrolyzable tannins from Eugenia jambolana seeds” (J Nat Prod, 2012)
pIC50: −log10 of the molar value.

test: Inhibition of yeast alpha-glucosidase using p-nitrophenyl-alpha-D-glucopyranoside as substrate compound pre-incubated for 10 mins before substrate addition measured after 5 mins by microplate reader; set-up: species or system Saccharomyces cerevisiae

Compound | pIC50
C[C@H]1O[C@H](O[C@H]2[C@H](O)[C@@H](O)[C@@H](O[C@H]3[C@H](O)[C@@H](O)C(O)O[C@@H]3CO)O[C@@H]2CO)[C@H](O)[C@@H](O)[C@@H]1N[C@H]1C=C(CO)[C@@H](O)[C@H](O)[C@H]1O (stereo not given in full) [ACARBOSE] | 3.68
O=C(O[C@H]1[C@H](O)[C@@H](CO)OC(O)[C@@H]1OC(=O)c1cc(O)c(O)c(O)c1Oc1cc2c(=O)oc3c(O)c(O)cc4c(=O)oc(c1O)c2c34)c1cc(O)c(O)c(O)c1 (stereo not given in full) [OENOTHEIN C] | 4.12
COc1cc2oc(-c3ccc(O)cc3)cc(=O)c2c(O)c1[C@@H]1O[C@H](CO)[C@@H](O)[C@H](O)[C@H]1O [SWERTISIN] | 3.83

Compounds with a higher pIC50, results first:

pIC50 | Compound
4.91 | O=C(O[C@H]1[C@@H]2OC(=O)c3cc(O)c(O)c(O)c3-c3c(cc(O)c(O)c3O)C(=O)OC[C@H]2OC(O)[C@@H]1OC(=O)c1cc(O)c(O)c(O)c1Oc1cc2c(=O)oc3c(O)c(O)cc4oc(=O)c(c1O)c2c43)c1cc(O)c(O)c(O)c1 (stereo not given in full) [CORNUSSIN B]
5.09 | O=C(O[C@H]1[C@H](O)[C@@H](CO)OC(O)[C@@H]1OC(=O)c1cc(O)c(O)c(O)c1Oc1c(O)cc2c(=O)oc3c(O)c(O)cc4c(=O)oc1c2c34)c1cc(O)c(O)c(O)c1 (mixture of isomers)
